Patent publication US20070224645A1, “Novel cell-based phosphodiesterase assays” (priority 2006, published 2007)
“Also recorded” adds a separate entry of the source.

Each compound was assayed on PDE IV (assay: Cell-based PDE assay in ACTOne-IRES-A2b#2 cell line with ACTOne Membrane Potential dye, no external cAMP stimulation). Conditions: ACTOne-IRES-A2b#2 cell line (HEK293-CNG overexpressing human adenosine A2b receptor); readings before and 30 minutes after compound addition.
Procedure: Before the assay, all cells are harvested when they reach 80-90% confluence or less, and they should not be overgrown. Culture medium of the transfected cells was removed and replaced with a volume of Dulbecco's Phosphate Buffers Saline without calcium and magnesium (DPBS) to adequately cover and wash the cells. The DPBS was removed and a sufficient volume of 1× trypsin-EDTA was added to just cover the cells (i.e. 1 ml for a 10 cm dish, 2 ml for a T75 flask, and 5 ml for a T150 flask). The plate was agitated to make sure the cells were equally covered with the solution. The cells were trypsinized at room temperature for about 5 min. After 5 min, the cells were examined to ensure that they were detached from the dish or flask. Gentle tapping of the dish/flask may aid in the process. Sufficient serum-containing medium were added to an appropriate volume and the medium was pipetted up and down through a serological pipette for 4 times to obtain a single cell suspension. A portion of the cells were counted with a hemocytometer. Cells are diluted in their appropriate medium at 7×10^5 cells/ml. 100 μl/well of cell suspension is added to 96-well plates or 20 μl/well is added to 384-well plates 16-24 hours before use. For cells with HEK293 background, poly-D-lysine-coated plates are recommended. Optimal assay conditions using standard fluorescence plate readers require a confluent monolayer of cells prior to the assay. The number of cells used per well will depend upon a number of conditions including the cell line and the instrument being used to make the reading. Cell plates are removed from the incubator after overnight incubation and examined under microscope. A confluent lawn of consistently spread cells is observed. An equal volume of IX Membrane Potential Dye Solution (BD Biosciences, Rockville, Md.) is then added to each well (e.g. 100 μl to 100 μl culture medium/well for 96-well plates, or 20 μl to 20 μl culture medium/well for 384-well plates). […] The cell plates are further incubated for 2 hrs at room temperature in the dark. Membrane potential assays are performed as described in the manual for ACTOne Membrane Potential Dye Kit (BD Biosciences, Rockville, Md.). Test compounds can be added on-line (some fluorescence plate readers also have fluid addition module, and therefore compound addition and fluorescence intensity reading can happen simultaneously. i.e. FLIPR and FlexStation) or off-line (other liquid handling equipments are used for compound addition). Test compounds in 1×DPBS was added to the cell plates at 50 μl/well for 96-well plates (250 μl total well volume after addition) or 10 μl/well for 384-well plates (50 μl total well volume after addition). Cell plates are loaded into a FLIPR, FLEXstation, or other fluorescence microplate reader to read fluorescence intensity before and after compound addition. The settings on FLIPR are described in the manuals from the manufacturer. For FLEXstation and other fluorescence microplate readers, wavelengths close to the maxima of absorption and emission of the dye are used: for example, 530 nm excitation, 550 auto cut-off, and 565 nm emission. […] Fluorescence intensity counts obtained before and 30 minutes after compound addition were used for data analysis. […] It has been reported that PDE4 is a dominant isozyme in HEK293 cells. In order to analyze the specificity of the PDE assay, different PDE inhibitors (Ro20-1724, Rolipram, Etazolate (PDE IV inhibitors); 8-methoxymethyl-3-isobuty-1-m (PDE I inhibitor); Zaprinast (cGMP specific PDE inhibitor); Quazinon (PDE III inhibitor); IBMX (pan PDE inhibitor)) were purchased from Sigma. They were diluted at different concentrations in 1×DPBS and the assays were performed the same as above using the ACTOne-IRES-A2b#2 cell line. Briefly, the cells were plated on 384-well PDL coated plate. The density of the cells was 14,000 cells per well. The cells were allowed to attach and grow overnight. […]

Row | Compound | detection of PDE inhibitor activity (dose response, fluorescence intensity)
1 | COCc1nc2c([nH]1)c(=O)n(C)c(=O)n2CC(C)C [8-methoxymethyl-3-isobuty-1-m, 8-Methoxymethyl-3-isobutyl-1-methylxanthine] | negative signals
2 | CCOC(=O)c1cnc2c(cnn2CC)c1NN=C(C)C.Cl [Etazolate, 1-ethyl-4-[(1-methylethylidene)hydrazino]1H-pyrazol-o[3,4-b]pyridine-5-carboxylic acid ethyl ester hydrochloride] | detected
3 | CC(C)Cn1c(=O)n(C)c(=O)c2[nH]cnc21 [IBMX, 3-Isobutyl-1-methylxanthine] | can not be detected; also recorded: negative signals
4 | C[C@@H]1C(=O)NC2=Nc3cccc(Cl)c3CN21 [Quazinon] | negative signals
5 | CCCCOc1cc(CC2CNC(=O)N2)ccc1OC (stereo not shown) [Ro20-1724] | detected
6 | COc1ccc(C2CNC(=O)C2)cc1OC1CCCC1 (stereo not shown) [Rolipram, 4-[3-(cyclopentyloxy)-4-methoxyphenyl]-2-pyrrolidinone] | detected
7 | CCCOc1ccccc1-c1nc2nn[nH]c2c(=O)[nH]1 [Zaprinast] | negative signals
